Results: patent US10407467B2, “Polymyxin derivatives and their use in combination therapy together with different antibiotics” (priority 2013, dated 2019)
Bridge positions count the residues as written; N and C are the ends. Square brackets hold non-standard residues; d marks the D form. Peptide text beside a SMILES is read from it. * marks the point of attachment. ξ: configuration not given here. ξβ3hGly(cHex) = NC(CC(=O)*)C1CCCCC1; Thr(3ξ) = CC(O)[C@H](N)C(=O)O; Dab = NCC[C@H](N)C(=O)O

Tests used:
Assay in all cases: MIC, compound in combination with a second agent (broth microdilution)
Format in all cases: cell-based
Acinetobacter baumannii = tested on: Acinetobacter baumannii
Outline: (§1)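 Isolated colonies from an 18-24 hour Mueller-Hinton agar plate are suspended to the 0.5 McFarland standard, then tested against 1:1 w/w mixtures of compound and a second antibacterial such as rifampicin. Reported MICs represent total drug (both components).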

Escherichia coli = tested on: Escherichia coli
Outline: as §1

Klebsiella pneumoniae = tested on: Klebsiella pneumoniae
Outline: as §1

Pseudomonas aeruginosa = tested on: Pseudomonas aeruginosa
Outline: as §1

[1] = 1:1 combination with Aztreonam, total drug concentration
[2] = 1:1 combination with Ciprofloxacin (by row order), total drug concentration
[3] = 1:1 combination with Ciprofloxacin, total drug concentration
[4] = 1:1 combination with Tigecycline, total drug concentration
[5] = 1:1 combination with Vancomycin, total drug concentration
[6] = Ratio of Compound to Rifampicin 1:1, total drug concentration
[7] = Ratio of Compound to Rifampicin 1:3, total drug concentration

CC(C)C[C@@H]1NC(=O)[C@@H](Cc2ccccc2)NC(=O)[C@H](CCN)NC(=O)[C@@H](NC(=O)[C@H](CCN)NC(=O)[C@@H](NC(=O)CC(N)C2CCCCC2)C(C)O)CCNC(=O)[C@H](C(C)O)NC(=O)[C@H](CCN)NC(=O)[C@H](CCN)NC1=O (stereo partly drawn) [Example 10, [3(R,S)-3-Amino-3-cyclohexane-propanoyl]Polymyxin B nonapeptide] ({ξβ3hGly(cHex)}-[Thr(3ξ)][Dab][Dab][Dab][dF]L[Dab][Dab][Thr(3ξ)]; lactam 3-C)
4 microgram/mL: MIC K. pneumoniae NCTC 13442 (Klebsiella pneumoniae; [5])
8 micrograms/mL: MIC E. coli NCTC9001 (Escherichia coli; [4]) | MIC E. coli ATCC25922 (Escherichia coli; E. coli ATCC25922, 1:1 combination with Oxacillin, total drug concentration)
>32 microgram/mL: MIC K. pneumoniae CCUG 59348 (Klebsiella pneumoniae; [5])
0.25 micrograms/mL: MIC A. baumannii ATCC BAA-747 (Acinetobacter baumannii; 1:1 (wt:wt) combination with Rifampicin, MIC = total drug concentration, strain ATCC BAA-747) | MIC K. pneumoniae ATCC BAA-1706 (Klebsiella pneumoniae; [2]) | MIC P. aeruginosa ATCC-47 (Pseudomonas aeruginosa; 1:1 (wt:wt) combination with Rifampicin, MIC = total drug concentration, strain ATCC-47) | MIC P. aeruginosa CCUG 59626 (Pseudomonas aeruginosa; 1:1 (wt:wt) combination with Rifampicin, MIC = total drug concentration, strain CCUG 59626)
2 micrograms/mL: MIC E. coli NCTC 13441 (Escherichia coli; [1]) | MIC E. coli NCTC 13441 (Escherichia coli; E. coli NCTC 13441, 1:1 combination with Azithromycin, total drug concentration)
0.5 micrograms/mL: MIC A. baumannii NCTC 13424 (Acinetobacter baumannii; [2]) | MIC E. coli ATCC25922 (Escherichia coli; E. coli ATCC25922, 1:1 combination with Novobiocin, total drug concentration) | MIC E. coli NCTC9001 (Escherichia coli; E. coli NCTC9001, 1:1 combination with Meropenem, total drug concentration) | MIC E. coli NCTC 13441 (Escherichia coli; E. coli NCTC 13441, 1:1 combination with Novobiocin, total drug concentration) | MIC K. pneumoniae ATCC-BAA-2146 (Klebsiella pneumoniae; 1:1 (wt:wt) combination with Rifampicin, MIC = total drug concentration, strain ATCC-BAA-2146) | MIC K. pneumoniae NCTC 13438 (Klebsiella pneumoniae; 1:1 (wt:wt) combination with Rifampicin, MIC = total drug concentration, strain NCTC 13438) | MIC K. pneumoniae ATCC 4352 (Klebsiella pneumoniae; K. pneumoniae ATCC4352, 1:1 combination with Fusidic acid, total drug concentration) | MIC K. pneumoniae ATCC-BAA-2146 (Klebsiella pneumoniae; [6]) | MIC K. pneumoniae NCTC 13438 (Klebsiella pneumoniae; [6]) | MIC K. pneumoniae ATCC-BAA-2146 (Klebsiella pneumoniae; [7]) | MIC K. pneumoniae NCTC 13438 (Klebsiella pneumoniae; [7]) | MIC P. aeruginosa CCUG 59626 (Pseudomonas aeruginosa; [2]) | MIC P. aeruginosa ATCC 10145 (Pseudomonas aeruginosa; P. aeruginosa ATCC 10145, 1:1 combination with Novobiocin, total drug concentration)
4 micrograms/mL: MIC K. pneumoniae CCUG 59349 (Klebsiella pneumoniae; [1]) | MIC K. pneumoniae ATCC BAA-1706 (Klebsiella pneumoniae; K. pneumoniae ATCC BAA-1706, 1:1 combination with Meropenem, total drug concentration) | MIC K. pneumoniae CCUG 59349 (Klebsiella pneumoniae; K. pneumoniae CCUG 59349, 1:1 combination with Azithromycin, total drug concentration)
>32 micrograms/mL: MIC K. pneumoniae CCUG 59348 (Klebsiella pneumoniae; [4]) | MIC K. pneumoniae CCUG 59348 (Klebsiella pneumoniae; K. pneumoniae CCUG 59348, 1:1 combination with Meropenem, total drug concentration)
0.125 micrograms/mL: MIC A. baumannii CCUG57249 (Acinetobacter baumannii; 1:1 (wt:wt) combination with Rifampicin, MIC = total drug concentration, strain CCUG57249) | MIC A. baumannii NCTC 13423 (Acinetobacter baumannii; 1:1 (wt:wt) combination with Rifampicin, MIC = total drug concentration, strain NCTC 13423) | MIC A. baumannii NCTC 13424 (Acinetobacter baumannii; 1:1 (wt:wt) combination with Rifampicin, MIC = total drug concentration, strain NCTC 13424) | MIC E. coli ATCC25922 (Escherichia coli; 1:1 (wt:wt) combination with Rifampicin, MIC = total drug concentration, strain ATCC25922) | MIC E. coli NCTC9001 (Escherichia coli; 1:1 (wt:wt) combination with Rifampicin, MIC = total drug concentration, strain NCTC9001) | MIC E. coli ATCC25922 (Escherichia coli; [1]) | MIC E. coli ATCC25922 (Escherichia coli; E. coli ATCC25922, 1:1 combination with Azithromycin, total drug concentration) | MIC K. pneumoniae ATCC 4352 (Klebsiella pneumoniae; K. pneumoniae ATCC4352, 1:1 combination with Azithromycin, total drug concentration) | MIC K. pneumoniae ATCC 4352 (Klebsiella pneumoniae; K. pneumoniae ATCC4352, 1:1 combination with Novobiocin, total drug concentration) | MIC P. aeruginosa ATCC 27853 (Pseudomonas aeruginosa; [2])
1 micrograms/mL: MIC A. baumannii NCTC 13424 (Acinetobacter baumannii; [1]) | MIC A. baumannii NCTC 13424 (Acinetobacter baumannii; A. baumannii NCTC 13424, 1:1 combination with Azithromycin, total drug concentration) | MIC E. coli CCUG 59342 (Escherichia coli; [3]) | MIC E. coli ATCC25922 (Escherichia coli; E. coli ATCC25922, 1:1 combination with Fusidic acid, total drug concentration) | MIC K. pneumoniae CCUG-59348 (Klebsiella pneumoniae; 1:1 (wt:wt) combination with Rifampicin, MIC = total drug concentration, strain CCUG-59348) | MIC K. pneumoniae NCTC 13442 (Klebsiella pneumoniae; [3]) | MIC K. pneumoniae CCUG 59349 (Klebsiella pneumoniae; K. pneumoniae CCUG 59349, 1:1 combination with Novobiocin, total drug concentration) | MIC K. pneumoniae CCUG-59348 (Klebsiella pneumoniae; [6]) | MIC K. pneumoniae CCUG-59348 (Klebsiella pneumoniae; [7]) | MIC P. aeruginosa ATCC 27853 (Pseudomonas aeruginosa; 1:1 (wt:wt) combination with Rifampicin, MIC = total drug concentration, strain ATCC 27853) | MIC P. aeruginosa ATCC 10145 (Pseudomonas aeruginosa; [1]) | MIC P. aeruginosa CCUG 59626 (Pseudomonas aeruginosa; [4]) | MIC P. aeruginosa ATCC 10145 (Pseudomonas aeruginosa; P. aeruginosa ATCC 10145, 1:1 combination with Azithromycin, total drug concentration)
≤0.06 micrograms/mL: MIC E. coli ATCC25922 (Escherichia coli; [3]) | MIC E. coli NCTC9001 (Escherichia coli; [3]) | MIC K. pneumoniae ATCC 4352 (Klebsiella pneumoniae; 1:1 (wt:wt) combination with Rifampicin, MIC = total drug concentration, strain ATCC 4352) | MIC K. pneumoniae ATCC 4352 (Klebsiella pneumoniae; [1]) | MIC K. pneumoniae ATCC 4352 (Klebsiella pneumoniae; [2])
32 micrograms/mL: MIC K. pneumoniae CCUG 59348 (Klebsiella pneumoniae; [3])
16 micrograms/mL: MIC K. pneumoniae NCTC 13442 (Klebsiella pneumoniae; [4]) | MIC K. pneumoniae NCTC 13442 (Klebsiella pneumoniae; K. pneumoniae NCTC 13442, 1:1 combination with Meropenem, total drug concentration)
16 microgram/mL: MIC E. coli NCTC9001 (Escherichia coli; [5])
